Experimental data taken from patent US12018058B2, “Compositions and methods for diagnosing and/or treating kidney injury” (Boston Medical Center Corporation, priority 2018, dated 2024).
Square brackets hold non-standard residues; d marks the D form. Peptide text beside a SMILES is read from it. βAla = NCCC(=O)O

Experiments:
[1] = test system: mice subjected to bilateral renal pedicle clamping; assay: Ischemic AKI by bilateral renal pedicle clamping (BUN, creatinine, survival); type: in vivo, C57BL/6J mice; details: for Renal function (serum BUN): days 1-7 post-ischemia, single i.v. dose 100 μg/g within 3 h after 28 min ischemia, versus control peptide; for Animals surviving severe ischemic AKI: single dose 0-3 hours after releasing clamps; for Animal deaths on day 1 post-AKI / Survival / Total deaths / Animal deaths on day 2 post-AKI / Animal deaths on day 3 post-AKI: n = 8; for Animal deaths on day 1 post-AKI / Animal deaths on day 2 post-AKI / Animal deaths on day 3 post-AKI: 28 min renal ischemia; for Survival: 7 d; for Total deaths: recorded for 7 d
Source text: All animals were maintained under the guidance and policies of the Boston University Animal Core facility using National Institutes of Health (NIH) and Institutional Animal Care and Use Committee guidelines. Male and female C57BL/6J mice were purchased from Jackson Laboratory (Bar Harbor, ME), and they were housed and bred at the Boston University Animal Core facility under license number AN-15024. […] Animas were handled in a manner consistent with the NIH guide for their care and use under Institutional Animal Care and Use Committee approval.
Mice were subjected to bilateral renal pedicle clamping after being anesthetized with 2,2,2-tribromoethanol. […] 13,28,29 Slight variation in the clamp time was required to achieve similar degrees of renal dysfunction in the relatively large number of animals studied. The clamp was then removed, and reperfusion was confirmed by visual inspection of the kidneys. Sham ischemia was performed by encircling each renal pedicle with a nonocclusive ligature.
For in vitro testing in primary human PTECs, peptides ([…]) were tested that replicate the Bax domain responsible for binding NPM,34 or two peptides designed to interfere with NPM function were compared with a random nonspecific sequence of the same length (control). Peptides intended to interfere with NPM function overlap key phosphorylation sites located at the NPM amino terminus (peptide 2) or carboxy terminus (peptide 3) detected by mass spectrometry. To improve cell uptake, all peptides contained a cell-penetrating sequence13. For in vivo experiments, a renal-targeting sequence (NLS) was added to enhance renal peptide uptake.35 Peptides were commercially synthesized (Biomatik, Wilmington, DE) J Am Soc Nephrol 30: ccc-ccc, 2018 Nucleophosmin in AKI 3www.jasn.org BASIC RESEARCHas follows: NPM-Bax blocking peptide: Ac-KKKRKV-(bA)-[…]-COOH (SEQ ID NO: 8); peptide 2: AC-PKKKRKV-(bA)-[…]-COOH (SEQ ID NO: 9); and peptide 3: AC-PKKKRKV-(bA)-ESFKK-QEKTPKTPKGPSSVED-IKAK-COOH (SEQ ID NO: 10). […] A total of 42 control and 56 experimental animals were studied.
Transient exposure to metabolic inhibitors replicates ischemia in vivo by activating Bax and causing cell death.13,29,36-38 Cell viability was assayed using a modified colorimetric technique (MTTassay).37 The number of surviving cells is expressed as a percentage of viable control cells detected at baseline. Serum BUN and creatinine levels were measured in tail vein blood samples for 7 days after ischemia using QuantiChrom BUN or creatinine assay kits (BioAssay Systems, Hayward, CA) according to the manufacturer's instructions.

[2] = molecular target: T1, NPM-Bax complex (Mus musculus, UniProt Q61937); assay: NPM-Bax interaction, Bax immunoprecipitates from renal cortical homogenates after ischemia; type: in vivo, murine; details: for Bax-NPM interaction in postischemic renal homogenates: peptide injected 3 hours after bilateral renal ischemia, FIG. 9B
T1 construct: from tissue; host or cells: renal cortical homogenate of C57BL/6J mice after bilateral renal pedicle clamping
Procedure: Similar amounts of Bax were detected in each lane, and input protein amounts for each sample were identical. IB, immunoblot; IP, immunoprecipitation.
Cell, tissue, and urinary proteins were harvested using PD buffer containing 40 mM Tris-HCl, pH 8.0, 500 mM NaCl, 0.1% Nonidet P-40, 6 mM EGTA, and a protease inhibitor cocktail (Set I; Calbiochem, San Diego, CA). NPM was immunoprecipitated overnight with NPM antibodies (catalog no. B0556; Sigma-Aldrich) in the presence of protein A/G-agarose beads at 4° C. NPM accumulation was measured in cytosolic samples extracted with low-dose digitonin ([…]).13 Cytosolic proteins were extracted from renal cortical tissue samples using an extraction kit (Biochain Institute, Newark, CA). Briefly, 50-100 mg of kidney cortex tissue was minced on ice and spin washed with 1 ml ice-cold wash buffer before adding […] of buffer C. The mixture was rotated at 4° C. for 20 minutes and then centrifuged at 18,0003 g at 4° C. for 20 minutes before being harvested. Protein levels were measured with the bicinchoninic acid assay (Thermo Scientific, Rockford, IL).
NPM is a relevant therapeutic target in human AKI. Primary human proximal tubule epithelial cells (PTEC) derived from cadaveric kidneys were subjected to ischemic stress (transient ATP depletion) in the presence of specific NPM siRNA or non-sense siRNA. […] Thus, manipulating NPM is an effective maneuver. […] Small peptides of 30 amino acids or less are sufficiently specific to minimize off target effects and also reduce the risk of eliciting an antibody response that causes tachyphylaxis. Peptides were commercially synthesized and fused to a nuclear localizing sequence (this NLS has no functional relationship to the “NPM NLS” that regulates NPM translocation). The NLS-CPP markedly increases renal accumulation of small peptides8 as well as in the proximal tubule. […] To determine its effect on NPM-Bax complex formation, active Bax was immunoprecipitated from PTEC rendered ischemic with an antibody directed against the 6A7 epitope. The precipitates were subjected to immunoblot analysis using an anti-NPM antibody. […] NPM and Bax accumulation was measured in mitochondria isolated from human PTEC after ischemic stress. […] This is likely due to the prolonged half-life (about 80 hr) of the peptide in vitro and in vivo due to the presence of an AC modification slows degradation.

[3] = Peptide half-life in vitro and in vivo
[4] = 28 min bilateral pedicle clamping

T1 sequence (Q61937 whole entry, one chain of several): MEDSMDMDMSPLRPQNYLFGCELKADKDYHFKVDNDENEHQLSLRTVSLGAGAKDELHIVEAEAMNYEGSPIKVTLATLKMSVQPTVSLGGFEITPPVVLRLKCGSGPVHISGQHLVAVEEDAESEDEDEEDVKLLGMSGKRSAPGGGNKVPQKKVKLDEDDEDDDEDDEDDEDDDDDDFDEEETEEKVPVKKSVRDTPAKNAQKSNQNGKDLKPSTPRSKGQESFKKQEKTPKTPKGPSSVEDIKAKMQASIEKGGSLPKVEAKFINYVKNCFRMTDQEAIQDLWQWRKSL

SMILES: CC[C@H](C)[C@H](NC(=O)[C@@H](NC(=O)[C@H](CC(C)C)NC(=O)[C@H](CO)NC(=O)[C@H](C)NC(=O)[C@@H](NC(=O)[C@H](CC(C)C)NC(=O)[C@@H](NC(=O)CNC(=O)[C@H](C)NC(=O)[C@@H](NC(=O)[C@H](Cc1ccccc1)NC(=O)[C@@H](NC(=O)[C@@H](NC(=O)[C@@H](NC(=O)[C@@H](NC(=O)CCNC(=O)[C@@H](NC(=O)[C@H](CCCCN)NC(=O)[C@H](CCCNC(=N)N)NC(=O)[C@H](CCCCN)NC(=O)[C@H](CCCCN)NC(=O)[C@H](CCCCN)NC(C)=O)C(C)C)[C@@H](C)O)C(C)C)[C@@H](C)O)[C@@H](C)CC)C(C)C)C(C)C)[C@@H](C)O)[C@@H](C)O)C(=O)N[C@@H](Cc1c[nH]c2ccccc12)C(=O)N[C@@H](CCCCN)C(=O)N[C@@H](CCCCN)C(=O)N[C@@H](CCSC)C(=O)NCC(=O)O [Peptide #1] (Ac-KKKRKV[βAla]TVTIFVAGVLTASLTIWKKMG-OH)
- Animals surviving ([1]; 22 min bilateral renal ischemia): 98%
- Animal survival [1, 4]: all survived
- Mean peak BUN [1, 4]: 100 m/dl
- Serum creatinine ([1]; day 1, peptide administered 3 hours after ischemia, versus control): significantly reduced
- Reduction of serum creatinine ([1]; day 1 post-ischemia, single dose after 28 min ischemia): ~50%
- Improvement of BUN ([1]; days 1-6, IV within 3 hr after 22 min bilateral renal ischemia, versus random peptide): 15-35%
- Renal function (serum BUN) ([1]; listed as Blocking peptide): significantly improved renal function
- Renal function (serum BUN) ([1]; listed as renal targeted peptide designed to interfere with Bax-NPM complex formation): significantly lower BUN levels
- Additional protection from higher or repeated dose ([1]; dose above 2 mg/animal (7 μM) or second dose within 24 hr, ischemic PTEC or mice): did not provide additional protection
- Protection against lethal renal ischemia (animal survival) ([1]; dose administered at 0, 1, 2 or 3 h post-ischemia, listed as Blocking peptide): significant protection
- Protection against lethal renal ischemia (animal survival) ([1]; dose administered at 0, 1, 2 or 3 h post-ischemia, listed as blocking peptide): for 7-d post-pedicle clamp release; no deaths were observed after 3 d. Significant protection
- Reduction of AKI severity ([1]; mice, administered before the insult): 40-50%
- Improvement of kidney function (reduced both BUN and creatinine) ([1]; mouse, in vivo): 50%
- Recovery of renal function ([1]; peptide-treated animals): complete
- Time recovery of renal function was sustained ([1]; peptide-treated animals): at least 4 weeks
- Protection against lethal renal ischemia (animal survival) ([1]; same dose administered 4, 5, or 6 h after ischemia, listed as Blocking peptide): no protection was observed
- Protection against lethal renal ischemia (animal survival) ([1]; same dose administered 4, 5, or 6 h after ischemia, listed as blocking peptide): 3 h post-AKI (P, 0.05); the blocking peptide was not protective if administered at 4, 5, or 6 h
- Animals surviving severe ischemic AKI ([1]; 28 min ischemia, listed as Blocking peptide): 88%
- Animals surviving severe ischemic AKI ([1]; 28 min ischemia, listed as NPM inhibitor peptide): 75%-88%
- Animal deaths on day 1 post-AKI ([1]; single dose 0 h post-AKI): 1
- Survival ([1]; single dose 0 h post-AKI): 88%
- Total deaths ([1]; single dose 0 h post-AKI): 1
- Animal deaths on day 1 post-AKI ([1]; single dose 1 h post-AKI): 1
- Animal deaths on day 2 post-AKI ([1]; single dose 1 h post-AKI): 1
- Survival ([1]; single dose 1 h post-AKI): 75%
- Total deaths ([1]; single dose 1 h post-AKI): 2
- Animal deaths on day 2 post-AKI ([1]; single dose 2 h post-AKI): 1
- Survival ([1]; single dose 2 h post-AKI): 88%
- Total deaths ([1]; single dose 2 h post-AKI): 1
- Animal deaths on day 2 post-AKI ([1]; single dose 3 h post-AKI): 1
- Survival ([1]; single dose 3 h post-AKI): 88%
- Total deaths ([1]; single dose 3 h post-AKI): 1
- Animal deaths on day 1 post-AKI ([1]; single dose 4 h post-AKI): 1
- Animal deaths on day 2 post-AKI ([1]; single dose 4 h post-AKI): 4
- Animal deaths on day 3 post-AKI ([1]; single dose 4 h post-AKI): 3
- Survival ([1]; single dose 4 h post-AKI): 0%
- Total deaths ([1]; single dose 4 h post-AKI): 8
- Animal deaths on day 1 post-AKI ([1]; single dose 5 h post-AKI): 1
- Animal deaths on day 2 post-AKI ([1]; single dose 5 h post-AKI): 6
- Survival ([1]; single dose 5 h post-AKI): 13%
- Total deaths ([1]; single dose 5 h post-AKI): 7
- Animal deaths on day 1 post-AKI ([1]; single dose 6 h post-AKI): 1
- Animal deaths on day 2 post-AKI ([1]; single dose 6 h post-AKI): 4
- Animal deaths on day 3 post-AKI ([1]; single dose 6 h post-AKI): 2
- Survival ([1]; single dose 6 h post-AKI): 13%
- Total deaths ([1]; single dose 6 h post-AKI): 7
- Animal survival ([1]; single dose within 3 hours postischemia, 28 min ischemia, versus control): dramatically improved animal survival
- Decrease of NPM-Bax complex formation in vivo (renal cortical homogenates) ([2]; after ischemia by pedicle clamping): about 50%
- Bax-NPM interaction in postischemic renal homogenates [2]: markedly decreases
- Bax-NPM interaction in postischemic renal homogenates ([2]; listed as Blocking peptide): markedly reduced
- Bax-NPM interaction in postischemic renal homogenates ([2]; listed as NPM-Bax blocking peptide (Peptide #1)): decreases
- half-life [3]: ~80 h
